Reference: patent US11497740B2, “Use of Jumonji C demethylase inhibitors for the treatment and prevention of chemotherapy resistance and radioresistance in cancer” (THE BOARD OF REGENTS OF THE UNIVERSITY OF TEXAS SYSTEM, priority 2016, dated 2022)

How the values were obtained:
[1] = tested on: H1355 Parental xenografts; assay: Subcutaneous xenograft drug response, H1355 Parental; format: in vivo, mice; conditions: GSK-J4 100 mg/kg i.p. 5x per week; JIB-04 50 mg/kg oral gavage 3x per week; 4 weeks
Protocol: Animals were housed under standard, sterile conditions at UTSW animal facility. All experiments were carried out under approved IACUC protocols and followed UTSW animal care procedures. For tumor growth rate studies and docetaxel+cisplatin drug response comparisons, 6-8 week old female NOD/SCID mice were used. For all subsequent in vivo drug response studies, 6 week old female athymic nude mice were used (Charles River Labs, Jackson Labs). Experimental details are provided in supplemental information.
Parental and resistant NSCLC cell lines (1×10^6 cells in PBS or RPMI for H1299; 5×10^6 cells in PBS/matrigel for H1355 and HCC4017) were injected subcutaneously into the right flank of mice. Tumor growth was monitored by caliper measurements and tumor volume was calculated by 0.5×length×width^2). Treatment was started when tumors reached ˜150-200 mm3. Drug/Vehicle therapy was given to tumor volume matched pairs. Docetaxel (3 mg/kg) and cisplatin (3 mg/kg) were given i.p. once a week for 3 weeks. […]

[2] = tested on: non-homologous end joining (NHEJ); assay: Green fluorescent protein NHEJ reporter assay, H1299; format: cell-based, Human; conditions: H1299 cells with integrated construct
Protocol: The green fluorescent protein assay was performed as described by Seluanov et al. To generate reporter cell lines 2 million H1299 cells were transfected with 0.5 μg of linearized NHEJ-I, or HR reporter constructs using the Amaxa Nucleofector; program X-005. G418, at 1 mg/ml, was added to the media 1 day post-transfection. Then Transient expression of the I-SceI endonuclease was used to generate a DNA DSB at the integrated GFP gene sequences. Briefly, H1299 cells containing the NHEJ or the HR constructs treated by 4 h with JIB-04 or DMSO were transfected with the pCMV3xnls-I-SceI (5 μg, functional endonuclease) and a pN1-mCherry plasmid (0.05 μg) as transfection control as previously stated. For the analysis of NHEJ and HR cells were harvested, resuspended in ˜1 ml 1×PBS, put on ice, and run on a BD FACScan instrument. GFP and mCherry fluorescence was analyzed using FlowJo software. Red-versus-green was plotted and DNA repair efficiency was calculated from the number of GFP-positive cells divided by the number of cells mCherry-positive cells.

cell cycle distribution = assay: Cell cycle analysis (PI staining); format: cell-based, Human; conditions: H1299 and A549; JIB-04 4 h with or without IR (2 Gy)
Protocol: NSCLCs were seeded in 6 wells plate, 24 h latter cells were pretreated with JIB-04 or DMSO for 4 h and exposed to a total dose of 2 Gy. Then cells were collected and fixed using 75% ethanol at […] for at least 24 hours. The cells were resuspended with PBS and incubated with 20 μl 1 mg/ml RNase A (Sigma) and 25 μg ml/ml propidium iodide (Sigma) for 30 min at room temperature. Experiment was done by triplicate, 20,000 cells were counted and the proportion of cells of different phase was analyzed using the software Flowjo.

DNA-PKcs = DNA-PKcs p-T2609 foci kinetics after IR; format: cell-based, Human; conditions: H1299; JIB-04 16 nM 4 h, 10 Gy
Protocol: NSCLCs were seeded onto Lab-Tek II Chamber Slides (Thermo Fisher) and 24 hours later pretreated with JIB-04 or DMSO for 4 h. Then cells were exposed to a total dose of 2 Gy (γH2AX and 53BP1) or 10 Gy (RAD-51 and DNAPKcs p-T2609) radiation. For knockdown and overexpression experiments H1299 cells were transfected using the Amaxa Nucleofector; program X-005. Specifically, 3×10^6 were transfected with siRNA duplexes targeting JMJD2A, JMJD2B, Jarid1A, Jarid1b, scrambled siRNA (250 nM final concentration) or expression vectors pCMVHA-JMJD2A, pCMVHA-JMJD2B, pCMVHA-Jarid1A, pCMVHA-Jarid1B, PC-2 for 72 hours, followed by quantification of expression or irradiation. Then, cells were fixed in 4% formaldehyde/PBS for 15 min, permeabilized with 0.5% Triton X-100 for 15 min on ice, and blocked with 5% bovine serum albumin in PBS for 1 h. The slides were incubated with an antibody against phospho-Histone γH2AX (1:1000, 3 h at room temperature), 53BP1 (1:500, 3 h at room temperature), Rad-51 (1:500, 48 hs 4° C.) or DNAPKcs p-T2609 (1:500, 48 hs 4° C.). Alexa Fluor 488-conjugated goat anti-Rabbit, […] goat anti-mouse or rhodamine red-conjugated goat anti-mouse secondaries antibodies were used (1:1000, 1 h at room temperature). […] Cells were analyzed on a Zeiss upright fluorescent microscope.

[3] = tested on: H3K4me3 demethylase Jumonji enzymes; assay: Histone demethylase activity in H1299 cellular extracts (H3K4me3); format: cell-based, Human; conditions: JIB-04 4 h
Protocol: For Histone demethylase activity determination 2×10^6 H1299 cells were seeded in P150 plates. After 24 h cells were pretreated with JIB-04 or DMSO for 4 h, irradiated with a total dose of 8 Gy of radiation. Then cells were sonicated (3×4 sec) and equal amounts of protein were incubated with a histone H3K4me3 or H3K9me3 substrate in a reaction buffer containing cofactors for 1 h at 37° C. Finally specific immune-detection of the H3K4me2 or H3K9me2 product using the Epigentek kit P-3081 for H3K9me3 demethylation and P-3083 for H3K4me3 demethylation. Background readings were given by heat inactivated extracts.

H1299 Parental cells = assay: Emergence of paclitaxel+carboplatin drug-tolerant colonies, H1299 Parental; format: cell-based, human; conditions: sub-lethal doses with paclitaxel+carboplatin
Description: FIGS. 8A-8E. […] Response was greater than additive, indicated by positive ΔBliss. […] Representative images from replicate assays (n=3) are shown. […] See also FIGS. 15-16.

Row | Structure (SMILES) | change in tumor volume relative to treatment start [1] | NHEJ repair efficiency [2] | cell cycle distribution (cell cycle distribution) | DNA-PKcs foci resolution (DNA-PKcs) | DNA-PKcs recruitment to DSBs (DNA-PKcs) | IR-increased H3K4me3 demethylase activity ([3]; IR 8 Gy, 15 min after radiation) | basal H3K4me3 demethylase activity ([3]; no IR) | emergence of drug-tolerant persister colonies (H1299 Parental cells)
1 | Clc1ccc(N/N=C(\c2ccccc2)c2ccccn2)nc1 [JIB-04] | continued to grow in volume | ≤ 50 % of normal levels | do not Affect Cell Cycle Distribution | majority of DNA-PKcs foci remained unresolved even 24 h post irradiation | robust deficiency in DNA-PKcs recruitment with foci not forming until 6 h post IR | blocked this increased activity | did not have any effects on basal activity | 
2 | CCOC(=O)CCNc1cc(N2CCc3ccccc3CC2)nc(-c2ccccn2)n1 [GSK-J4] |  |  |  |  |  |  |  | prevented the emergence of drug-tolerant persister colonies
